In patent US9045484B2, “Inhibitors of the BMP signaling pathway” (The Brigham and Women's Hospital, Inc., priority 2008, dated 2015):
pIC50: −log10 of the molar value. Like-named read-outs stand apart in the source and are kept apart here.

Experiments:
hematopoietic stem cells = assay: Frequency of hematopoietic stem cells in bone marrow, multicolor flow cytometry; type: in vivo, C57BL/6 mice; conditions: 3 mg/kg/d IP for 30 days; versus vehicle-injected controls; FIG. 15
Procedure: Ten week-old male C57BL/6 mice were treated chronically with compound 13 (3 mg/kg/d IP) for 30 days, and bone marrow harvested and subjected to multicolor flow cytometry to quantify hematopoietic stem cell lineages based on cell surface marker expression.

KDR-mediated signaling = assay: Antagonism of KDR-mediated signaling (not shown); conditions: compound 13 versus dorsomorphin
hepcidin [1] = assay: Pseudomonas aeruginosa-induced hepcidin expression in zebrafish embryos; type: in vivo; conditions: 6 μM; 5 h after PsA injection; RT-qPCR; FIG. 6
From the text: The following describes the development an in vivo model of inflammation-induced hepcidin expression that is amenable to facile genetic and pharmacological manipulation. The zebrafish is an attractive organism because it enables rapid knockdown of gene function via morpholino oligonucleotides and because it is highly amenable to pharmacological manipulation. Live Pseudomonas aeruginosa (PsA) were microinjected into the yolk of three-day-old zebrafish to induce a rapid and robust inflammatory response. It was determined that injection of bacteria induces robust expression of inflammatory markers. Embryos were injected with 5000 live PsA bacteria or phosphate PBS at 48 hpf and harvested 5 h later. TNFα, serum amyloid A (SAA), IL-1β, and IL-11α mRNA levels were measured by RT-qPCR (FIG. 5; *P<0.001 vs PBS, #P<0.002 vs. PBS). […] Next, it was examined whether the inflammatory response evoked by PsA in zebrafish is accompanied by induction of hepcidin.

[2] = C57BL/6, mouse, in vivo, ip, 3 mg/kg, 8 h
Procedure: Preliminary pharmacokinetic studies were performed by intraperitoneally administering to wild-type mice (C57BL/6) one dose (3 mg/kg) of compound 13 (FIG. 23). Pharmacokinetics via plasma levels of compound 13 were serially measured in individual mice at varying intervals after injection by LC-MS/MS (n=3 mice each point, mean±s.d.).

[3] = tested on: BMP-induced phosphorylation of SMAD1/5/8; assay: BMP4-induced phosphorylation of SMAD1/5/8, cytoblot (cellular ELISA); type: cell-based, murine; conditions: Mus musculus; FIG. 1; approximate; read-out: functional IC50, BMP4-induced SMAD1/5/8 phosphorylation
Procedure: Murine pulmonary artery smooth muscle cells were isolated, explanted and cultured as previously described (see […] et al. Am. J. Physiol. Lung Cell Mol. Physiol. 280:[…], 2001) and then grown to confluence in 96 well tissue culture plates. Cells were incubated in serum-free medium for 18 h, and then incubated with recombinant BMP2, BMP4, BMP6, BMP9, GDF5, TGF-β, or Activin A ligands (R&D Systems, Minneapolis, Minn.) at varying concentrations in duplicate for 20 minutes. […] Specificity for BMP-mediated signaling was determined separately using a modification of the cellular ELISA technique assaying for the activation of SMAD2 or SMAD3 via TGF-β, or Activin A. A corresponding IC50 was calculated for the effects of these compounds upon those signaling pathways.

[4] = Plasma pharmacokinetics after single bolus intraperitoneal administration; type: in vivo, C57B16 mice; conditions: IP 3 mg/kg
Procedure: The pharmacokinetics of 13.HCl was evaluated after a single bolus intraperitoneal administration (3 mg/kg) in male and female C57B16 mice on a commercial rodent diet and water ad libitum prior to the study. Compound plasma levels were determined by LC-MS/MS and the pharmacokinetic parameters were determined using WinNonlin software (Pharsight Co., Mountain View, Calif.). Dosing solutions (0.6 mg/mL) were prepared in a vehicle comprising 2% hydropropyl-β-cyclodextrin in phosphate-buffered saline (PBS). Each time point (pre-dose, 5, 10, 15, 30, 60, 120, 240, 480, 1440 min post-dose) was dosed as N=3/sex. Each blood sample was collected via cardiac puncture after euthanasia with CO2 and placed in chilled tubes containing sodium heparin. Samples were centrifuged at 4° C. at 13,000 rpm for 5 min followed by extracted with acetonitrile and then analyzed.
The pharmacokinetics of 44.HCl and 37.HCl were evaluated after a single bolus intraperitoneal administration (3 mg/kg) in male C57B16 mice on a commercial rodent diet and water ad libitum prior to the study. Compound plasma levels were determined by LC-MS/MS and the pharmacokinetic parameters were determined using WinNonlin software (Pharsight Co., Mountain View, Calif.). Dosing solutions (0.6 mg/mL) were prepared in a vehicle comprising 2% hydropropyl-β-cyclodextrin in phosphate-buffered saline (PBS). Each time point (pre-dose, 5, 10, 15, 30, 60, 120, 240, 480, 1440 min post-dose) was dosed as
N=3/sex. Each blood sample was collected via cardiac puncture after euthanasia with CO2 and placed in chilled tubes containing sodium heparin. Samples were centrifuged at 4° C. at 13,000 rpm for 5 min followed by extracted with acetonitrile and then analyzed.

hepcidin [5] = assay: Turpentine-induced hepatic hepcidin expression time course; type: in vivo, C57BL/6 mice; conditions: 3 mg/kg IP every 12 h; compared to vehicle; FIG. 13
[6] = tested on: turpentine-challenged C57BL/6 mice; conditions: 3 mg/kg ip every 12 h, weekly turpentine for 3 weeks
Procedure: To model the anemia of inflammation, C57BL/6 mice were studied in which chronic inflammation was induced by weekly subcutaneous injections of turpentine.
Mice received a subcutaneous injection of 100 μL turpentine weekly for 3 weeks. Compound 13 or vehicle (3 mg/kg) was administered ip beginning with the first turpentine injection and every 12 h thereafter. Vehicle treated mice without turpentine injection were studied as controls. One week after the final turpentine dose, blood was drawn for Hb levels, mean corpuscular volume (MCV), and absolute neutrophil counts.

hepcidin [7] = assay: Hepcidin expression in IL-6-expressing transgenic zebrafish; type: in vivo; conditions: 6 uM by bathing overnight; 7 days postfertilization; FIG. 22
Procedure: IL-6 expression was driven in the cardiomyocytes of living zebrafish by mating transgenic zebrafish expressing the Gal4 protein under the control of the cardiac myosin light chain 2 (cmlc) promoter with transgenic zebrafish carrying the human IL-6 gene under the control of a UAS upstream activation sequence (IL-6). Animals carrying both transgenes expressed IL-6 in their cardiomyocytes. IL-6-expressing animals were treated with 6 uM compound 13 or DMSO control by bathing overnight (FIG. 22). At 7 days postfertilization, animals were lysed, total RNA was extracted, and hepcidin expression levels were determined by quantitative RT-PCR with normalization to the housekeeping gene RPL13.

PDGFR-mediated signaling = assay: PDGF-induced AKT phosphorylation, cellular ELISA in PaSMCs; type: cell-based, murine
Procedure: To test the relative effects of dorsomorphin and structurally-related compounds upon PDGFR-mediated signaling, PDGF-induced AKT phosphorylation was measured by cellular ELISA via the detection of phospho-AKT in PaSMCs treated with compounds for 10 min. followed by PDGF for 30 min.

## c1ccc2c(-c3cnn4cc(-c5ccc(N6CCNCC6)cc5)cnc34)ccnc2c1 [Compound 13, 4-[6-(4-piperazin-1-ylphenyl)pyrazolo[1,5-a]pyrimidin-3-yl]quinoline]
Hematopoietic stem cells
  frequency of hematopoietic stem cells in the marrow: No significant difference
KDR-mediated signaling
  antagonism of KDR-mediated signaling: five- to six-fold reduction
Hepcidin [1]
  PsA-induced induction of hepcidin mRNA: almost completely blocked
[2]
  plasma levels relative to in vitro IC50 for BMP4-mediated activation of Smad1/5/8: 5 fold
[3]
  pIC50: 8.00 to 8.30
[4]; C57B16, mouse, female mice, read-out: tmax
  Tmax: < 5 min
[4]; C57B16, mouse, male mice, read-out: tmax
  Tmax: < 5 min
[4]; female mice
  AUC∞: 1030 ng·h/mL
  Cmax: 1290 nM
  Tmax: < 5 min
  t1/2: 96 min
[4]; male mice
  AUC∞: 994 ng·h/mL
  Cmax: 1540 nM
  Tmax: < 5 min
  t1/2: 96 min
Hepcidin [5]
  hepatic hepcidin elevation after turpentine: effectively suppressed hepcidin elevation at 24-96 hours
[6]; FIG. 10
  hemoglobin (Hb) levels: prevented the decline in Hb levels and MCV
[6]; FIG. 11
  mean corpuscular volume (MCV): prevented the decline in Hb levels and MCV
[6]; FIG. 12
  absolute neutrophil counts: did not affect the increase in absolute neutrophil counts
Hepcidin [7]
  hepcidin expression in IL-6-expressing animals: reduced hepcidin expression to wild-type levels
PDGFR-mediated signaling
  selectivity for BMP signaling versus PDGF signaling: improves upon the selectivity
PDGFR-mediated signaling; Mus musculus, PASMC, compounds 10 min, then PDGF 30 min, FIG. 2, read-out: functional IC50, PDGF-induced AKT phosphorylation
  pIC50: ~5.70
